Assay [1] has as its target T1, AR hormone binding site (recombinant wild type LBD) (Rattus norvegicus, UniProt P15207).
T1 construct: displace DHT from the ABS site of recombinant wild type LBD
T1 sequence (P15207 651-882 limits assumed): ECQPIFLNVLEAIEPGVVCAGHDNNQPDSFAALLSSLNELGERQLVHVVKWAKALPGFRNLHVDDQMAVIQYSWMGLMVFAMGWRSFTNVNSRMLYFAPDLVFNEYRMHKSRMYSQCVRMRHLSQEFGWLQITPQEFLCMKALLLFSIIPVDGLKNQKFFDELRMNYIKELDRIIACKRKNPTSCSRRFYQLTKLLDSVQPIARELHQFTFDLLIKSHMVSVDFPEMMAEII
As to the kind of experiment: Androgen displacement assay (Polar Screen Androgen Receptor Competitor Green Assay Kit). Conditions: fluorescence polarization. The procedure: 5. Androgen displacement assay: The androgen displacement was assessed with the Polar Screen Androgen Receptor Competitor Green Assay Kit as per the instructions of the manufacturer (Lack, Axerio-Cilies et al. 2011).
The ability of the above chemicals to displace DHT from the ABS site of recombinant wild type LBD was measured using a fluorescent polarization assay (PolarScreen™, Life Technologies) at various concentrations.
Background: Fluorescence polarisation rises when a labelled molecule tumbles more slowly, as on binding a larger partner.

Another assay deals with T2, androgen receptor (AR) (Homo sapiens, UniProt P10275, T878A).
T2 sequence (P10275 1-920 T878A): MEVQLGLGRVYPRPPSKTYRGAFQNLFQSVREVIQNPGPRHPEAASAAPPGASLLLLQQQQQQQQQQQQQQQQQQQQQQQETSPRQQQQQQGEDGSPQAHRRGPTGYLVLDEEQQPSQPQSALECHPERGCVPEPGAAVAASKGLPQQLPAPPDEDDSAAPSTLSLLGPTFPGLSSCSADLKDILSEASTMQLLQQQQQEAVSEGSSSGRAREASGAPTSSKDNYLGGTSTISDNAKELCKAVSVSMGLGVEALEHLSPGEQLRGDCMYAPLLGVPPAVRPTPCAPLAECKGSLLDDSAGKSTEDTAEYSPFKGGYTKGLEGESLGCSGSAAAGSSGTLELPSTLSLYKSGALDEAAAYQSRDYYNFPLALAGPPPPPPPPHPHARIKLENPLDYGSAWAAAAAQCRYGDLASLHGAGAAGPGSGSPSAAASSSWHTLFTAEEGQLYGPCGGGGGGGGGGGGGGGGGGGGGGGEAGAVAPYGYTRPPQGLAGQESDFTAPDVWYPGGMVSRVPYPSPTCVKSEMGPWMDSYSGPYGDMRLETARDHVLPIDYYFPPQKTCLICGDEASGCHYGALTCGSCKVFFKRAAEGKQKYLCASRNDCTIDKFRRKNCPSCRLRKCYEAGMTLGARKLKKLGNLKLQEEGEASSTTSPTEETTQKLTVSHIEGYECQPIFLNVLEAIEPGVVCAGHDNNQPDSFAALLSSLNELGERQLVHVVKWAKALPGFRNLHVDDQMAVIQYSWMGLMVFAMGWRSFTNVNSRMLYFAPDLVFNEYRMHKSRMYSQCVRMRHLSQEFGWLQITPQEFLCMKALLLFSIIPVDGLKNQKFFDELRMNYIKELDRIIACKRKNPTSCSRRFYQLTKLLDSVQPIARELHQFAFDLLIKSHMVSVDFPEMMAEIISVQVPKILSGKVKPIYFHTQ
Kind of assay: eGFP cellular AR transcription assay (LNCaP eGFP cells, LN-ARR2PB-eGFP). Particulars: for anti-AR activity (AR transcriptional inhibition) in words: LNCaP (T877A AR); for inhibition at 3 µM: LNCaP, read-out: % Inhibition (3 μM).

For another assay, the target named is AR DBD (Homo sapiens, UniProt P10275).
The next assay concerns AR target genes. As to the kind of experiment: Microarray genetic profile in LNCaP cells. Particulars: 1 nM R1881, 24 h.
The test system of a further assay is PSA. Kind of assay: Prostate-specific antigen (PSA) assay, secreted PSA from the eGFP assay plates. The assay is classed as cell-based, human. The procedure:
3. Prostate-specific antigen (PSA) assay: The evaluation of PSA levels secreted into the media was performed in parallel to the eGFP assay using the same plates. After cells were incubated for 3 days, 150 μl of the media was taken from each well, and added to 150 μl of PBS.

Setting [2] is: eGFP IC50, LNCaP eGFP cells, 0.1 nM R1881.
Setting [3] is: eGFP IC50 (μM), LNCaP eGFP cells.

Read-outs that look alike come from different tables or passages of the source.

What is called IC50 is the concentration that gives 50% inhibition. Usually inhibition stands for the drop in the measured response relative to a control, in per cent.

Regarding `c1cc(-c2csc(N3CCOCC3)n2)ccn1` [Compound 14435], the “Androgen Displacement IC50” value in assay [1] is given as “No displacement”. Besides, the “anti-AR activity (AR transcriptional inhibition) in words” value at androgen receptor (AR) was “maintained good potency”. Besides, the partial agonistic effect entry on androgen receptor (AR) (LNCaP eGFP cells) is recorded as “no undesired partial agonistic effect”. Also, the IC50 against androgen receptor (AR) (eGFP IC50 (μM), Series 1) turned out to be 2.61 µM; on androgen receptor (AR) (setting [2]), 3.87 ± 1.26 µM.
`c1cncc(-c2csc(N3CCOCC3)n2)c1` [Compound 14439]: the “Androgen Displacement IC50” value in assay [1] is given as “low displacement”. Also, on androgen receptor (AR), the “anti-AR activity (AR transcriptional inhibition) in words” value is given as “maintained good potency” and the inhibition at 3 µM was found to be 81%. Further, the partial agonistic effect result on androgen receptor (AR) (LNCaP eGFP cells) is on record as “no undesired partial agonistic effect”. At androgen receptor (AR) (setting [2]), this compound displayed a half-inhibitory concentration (IC50) of 0.16 ± 0.03 µM.
For the compound `c1ccc(-c2csc(N3CCOCC3)n2)nc1` [Compound 14436], the “Androgen Displacement IC50” value in assay [1] is “No displacement”. In addition, on androgen receptor (AR), the “anti-AR activity (AR transcriptional inhibition) in words” value is given as “maintained good potency”. Also, the partial agonistic effect entry at androgen receptor (AR) (LNCaP eGFP cells) is given as “no undesired partial agonistic effect”. Also, the IC50 turned out to be 2.51 µM against androgen receptor (AR) (eGFP IC50 (μM), Series 1) and 4.53 ± 0.26 µM on androgen receptor (AR) (setting [2]).
Regarding `COc1c(Cl)cc(-c2csc(N3CCOCC3)n2)cc1Cl` [Compound 14288], the “digestion of AR DBD by trypsin in presence of compound” value at AR DBD is recorded as “not digested”. In addition, at androgen receptor (AR), the “% Inhibition (3 μM)” value was found to be 35.89%.
Turning to `C[C@]1(O)CC[C@H]2[C@@H]3CCC4=CC(=O)CCC4=C3C=C[C@@]21C` [Compound R1881, R1881, reference compound], in the assay on AR target genes, the “FKBP5 gene expression fold change, DMSO+R1881 against DMSO-R1881” value was 1.61; the “KLK2 gene expression fold change, DMSO+R1881 against DMSO-R1881” value came out at 3.60; the “KLK3 (PSA) gene expression fold change, DMSO+R1881 against DMSO-R1881” value was determined as 2.42; the “TMPRSS2 gene expression fold change, DMSO+R1881 against DMSO-R1881” value is 2.25.
As to `CCC1CN(c2nc3ccccc3s2)CCO1` (stereo not shown) [Compound 14392], the IC50 with PSA (Homo sapiens, secreted PSA) was 10400 nM; on androgen receptor (AR) (setting [3]), 7.07 µM. Besides, at androgen receptor (AR), the inhibition at 3 µM is 55.5%.
As for `CC(=O)Nc1cccc(NC(=O)c2ccc(C)c(-n3cccc3)c2)c1` [Compound 14010], the IC50 in the assay on PSA (Homo sapiens, secreted PSA) was determined as 19300 nM; at androgen receptor (AR) (setting [3]), 32.5 µM.
For the compound `Oc1c(F)cccc1-c1csc(N2CCOCC2)n1` [Compound 14365], the IC50 in the assay on PSA (Homo sapiens, Series 1) was 160 nM; against androgen receptor (AR) (eGFP IC50 (μM), Series 1), 0.27 µM. At androgen receptor (AR), the inhibition at 3 µM is 97.4%.
As to `c1ccc2nc(-c3ccncc3)ccc2c1` [Compound 14320], the IC50 in the assay with PSA (Homo sapiens, secreted PSA) was determined as 2260 nM; against androgen receptor (AR) (setting [3]) it was 4.2 µM. Further, the inhibition at 3 µM on androgen receptor (AR) is 62%.
With `c1cc(-c2csc(N3CCCCC3)n2)cs1` [Compound 14131], the concentration for half-maximal inhibition (IC50) in the assay with PSA (Homo sapiens, Series 1) was determined as 540 nM; against androgen receptor (AR) (eGFP IC50 (μM), Series 1) it was 0.82 µM. The inhibition at 3 µM at androgen receptor (AR) is 117%.
The corresponding values for `Nc1ccccc1-c1csc(N2CCOCC2)n1` [Compound 14273] are 2030 nM, 1.41 µM and 73.4%.
For the compound `Clc1ccc(-c2csc(N3CCOCC3)n2)c(Cl)c1` [Compound 14263], the IC50 amounted to 1320 nM in the assay on PSA (Series 1) and 1.66 µM at androgen receptor (AR) (read-out: eGFP IC50).
Consider `Cc1ccc(C)c(-c2csc(N3CCOCC3)n2)c1` [Compound 14293], for which the IC50 in the assay on PSA (Homo sapiens, Series 1) came to 520 nM; on androgen receptor (AR) (eGFP IC50 (μM), Series 1) it was 0.62 µM.
The corresponding values for `Clc1ncn(-c2csc(N3CCOCC3)n2)c1I` [Compound 14468, 4-(4-(4-chloro-5-iodo-1H-imidazol-1-yl)thiazol-2-yl)morpholine] are 4020 nM and 2.44 µM.
The compound `Fc1ccc(F)c(-c2csc(N3CCOCC3)n2)c1` [Compound 14262] had a concentration for half-maximal inhibition (IC50) in the assay on PSA (Series 1) of 10400 nM. For the same compound, at androgen receptor (AR), the “% Inhibition (3 μM)” value turned out to be 96.6%.
As for `Fc1ccc(-c2csc(N3CCOCC3)n2)cc1` [Compound 14255], the IC50 turned out to be 410 nM in the assay on PSA (Homo sapiens, Series 1) and 0.66 µM at androgen receptor (AR) (eGFP IC50 (μM), Series 1). Also, the inhibition at 3 µM at androgen receptor (AR) is 44.9%.
On to `Cc1ccc2sc(N3CCOCC3)nc2c1C` [Compound 14332], for which the IC50 with PSA (Homo sapiens, secreted PSA) was 58 nM; at androgen receptor (AR) (setting [3]), 0.068 µM. The inhibition at 3 µM at androgen receptor (AR) amounted to 91.7%.
For the compound `c1ccc2cc(-c3cscn3)ccc2c1` [Compound 14193], the IC50 in the assay with PSA (Homo sapiens, secreted PSA) was determined as 640 nM; on androgen receptor (AR) (setting [3]) it was 1.3 µM.
For the compound `Nc1nc(-c2ccc3ccccc3c2)cs1` [Compound 14204], the concentration for half-maximal inhibition (IC50) in the assay on PSA (Homo sapiens, secreted PSA) is 10600 nM; on androgen receptor (AR) (setting [3]), 9.16 µM. Besides, the inhibition at 3 µM on androgen receptor (AR) is 67.2%.
As to `Oc1cccc(-c2ccc3ccccc3n2)c1` [Compound 14300], the IC50 in the assay on PSA (Homo sapiens, secreted PSA) was 1040 nM; at androgen receptor (AR) (setting [3]) it was 0.23 µM.
Take `COc1c(-c2csc(N3CCOCC3)n2)ccc(F)c1F` [Compound 14370]: the 50% inhibitory concentration (IC50) with PSA (Homo sapiens, Series 1) was determined as 250 nM. Moreover, on androgen receptor (AR), the “anti-AR activity (AR transcriptional inhibition) in words” value is given as “improved activities” and the inhibition at 3 µM was determined as 107%. For the same compound, at androgen receptor (AR) (eGFP IC50 (μM), Series 1), the midpoint of inhibition, the IC50, lay at 0.19 µM.
For `c1cc(-c2csc(N3CCOCC3)n2)cs1` [Compound 14404, 4-(4-(thiophen-3-yl)thiazol-2-yl)morpholine], the IC50 in the assay with PSA (Homo sapiens, Series 1) turned out to be 220 nM; against androgen receptor (AR) (eGFP IC50 (μM), Series 1), 0.26 µM; on androgen receptor (AR) (setting [2]), 0.27 ± 0.02 µM. In addition, the “Androgen Displacement IC50” value in assay [1] was “No displacement”. At androgen receptor (AR), the “anti-AR activity (AR transcriptional inhibition) in words” value is recorded as “maintained good potency”. In addition, the partial agonistic effect entry at androgen receptor (AR) (LNCaP eGFP cells) is given as “no undesired partial agonistic effect”.
As for `c1ccc2c(-c3csc(-c4c[nH]c5ccccc45)n3)c[nH]c2c1` [Compound 14471], the IC50 in the assay with PSA (Homo sapiens, Series 1) was 1410 nM; against androgen receptor (AR) (eGFP IC50 (μM), Series 1), 1.02 µM.
The corresponding values for `Clc1ncn(-c2csc(N3CCOCC3)n2)c1Br` [Compound 14451, 4-(4-(5-bromo-4-chloro-1H-imidazol-1-yl)thiazol-2-yl)morpholine] are 440 nM and 0.33 µM.
